According to US20210023089A1, “Compositions Useful for Treating Herpes Simplex Keratitis, and Methods Using Same” (priority 2013, published 2021):

How the values were obtained:
HSV-1 [1] = assay: Western blot of viral proteins in HSV-1 infected hTCEpi cells; type: cell-based, HSV-1 (KOS strain); details: MOI 0.1, 10 μM, 16 hpi
Protocol: The following strains of HSV-1 were used: KOS, ICPO-null, HFEM, and tsB7. Subconfluent monolayers of cells were grown in six-well plates. Drug treatments were administered 45 minutes prior to infection and continued for the entire duration of each experiment. Unless indicated otherwise, KU-55933 (Batch No. 5, 99.7% purity; Tocris Bioscience, Bristol, UK) was used at 10 μM final concentration, phosphonoacetic acid (PAA) at 400 μg/mL (Sigma-Aldrich, St. Louis, Mo.), and acyclovir at 50 μg/mL (Sigma-Aldrich). KU-55933 was dissolved in dimethyl sulfoxide (DMSO), and the final concentration of DMSO in both KU-55933 and mock treatment in the in vitro and the ex vivo experiments was 0.1%.
Standard protocol was followed for Western blot analysis. Cell lysates were collected in 200 μL Laemmli buffer, vortexed, and boiled at 95° C. for 5 minutes. Protein concentrations were measured by bicinchoninic acid (BCA) assay. SDS-PAGE was followed by transfer onto a polyvinylidene difluoride (PVDF) membrane, which was then blocked in 5% BSA. […]

HSV-1 [2] = assay: Time-of-addition of KU-55933 in HSV-1 infected hTCEpi cells (Western blot gC, qRT-PCR genome); type: cell-based; details: MOI 1, KU-55933 10 μM, read at 8 hpi
Protocol: Standard protocol was followed for Western blot analysis. Cell lysates were collected in Laemmli buffer, vortexed, and boiled at 95° C. for 5 min. Protein concentrations were measured by reducing agent-compatible BCA assay. SDS-PAGE was followed by transfer onto a PVDF membrane, which was then blocked in 5% BSA. Primary antibody staining was performed overnight and blots were visualized on film or with the Odyssey near-infrared system (LI-COR, Lincoln, Nebr.). Primary antibodies against the following proteins were used: ICP0 (Virusys Corporation, Taneytown, Md.), ICP4, PML, and nucleolin (Santa Cruz Biotechnology, Santa Cruz, Calif.), ICP8, glycoproteins B and C, ATM and pATM-Ser1981 (Rockland, Gilbertsville, Pa.), Chk2 and pChk2-Thr68 (Cell Signaling, Danvers, Mass.).
Total DNA was isolated from infected cells using the DNeasy Blood & Tissue Kit (QIAGEN, Hilden, Germany). Real time quantitative PCR was performed with SYBR Green (Bio-Rad, Hercules, Calif.). Target primers for UL30 (DNA polymerase catalytic subunit) and reference primers for GAPDH were used to measure genome replication. Primer sequences were provided in Alekseev et al., 2014, Invest. Ophthalm. Vis. Sci. 55:706-715). Real time PCR data were processed using the ΔΔC(t) method.
hTCEpi, EPC2, and OKF6 are normal human epithelial cells from cornea, esophagus, and palate, respectively. […]

McKrae strain HSV-1 = assay: Mouse model of ocular HSV-1 keratitis, disease scoring; type: in vivo, C57BL/6J mice; details: 200 μM topical
Protocol: Four-week-old female C57BL/6J mice were anesthetized with isoflurane, and their left eyes were scarified in a 4×4 crosshatch pattern with a 28-gauge needle. […] strain HSV-1 was applied in 1 μL inoculum volume at 8×10^5 PFU/eye and the eyelid gently massaged. The infection was allowed to develop for 24 hours, at which point treatments were initiated. KU-55933 was delivered to the corneas dissolved in PBS to a concentration of 200 μM. Control treatments constituted an equivalent amount of DMSO (0.2% vol/vol) in PBS drops. Treatments were administered every 4 hours for 1 full day and then every 8 hours for the remainder of the experiment. Ocular disease severity was assessed at every 24-hour period postinfection. Two disease parameters were scored based on a number scale (Jose et al., 2013, Invest Ophthalmol Vis Sci 54:1070-1079). Briefly, stromal keratitis was scored as 1+, cloudiness, some iris detail visible; 2+, iris detail obscured; 3+, cornea totally opaque; and 4+, corneal perforation. Blepharitis was scored as 1+, puffy eyelids; 2+, puffy eyelids with some crusting; 3+, eye swollen shut with severe crusting; and 4+, eye completely swollen shut and crusted over.

hTCEpi cells = assay: Colony survival assay; type: cell-based, human
Protocol: hTCEpi cells were treated with KU-55933 (10 μM) or DMSO for 24 hours, trypsinized, counted, and plated into 6-cm dishes at 50 cells/dish. After 2 weeks, colonies were fixed with 10% buffered formalin, stained with 0.01% crystal violet, rinsed, and counted.

Structure (SMILES): O=c1cc(-c2cccc3c2Sc2ccccc2S3)oc(N2CCOCC2)c1 [KU-55933, 2-(morpholin-4-yl)-6-(thianthren-1-yl)-pyran-4-one]
- levels of viral proteins (Western blot) (HSV-1 [1]): pronounced decrease
- viral replication, treatment administered at 1 hpi and later (HSV-1 [2]): significantly less effect
- viral replication, treatment started prior to the 1 hpi timepoint (HSV-1 [2]): notable reduction
- difference in blepharitis score versus control group (McKrae strain HSV-1): not statistically significant
- stromal disease severity (stromal keratitis score) (McKrae strain HSV-1; started 24 hpi, every 4 hours for 1 day then every 8 hours): notable and statistically significant reduction
- stromal keratitis state by day 5 postinfection, on average (McKrae strain HSV-1; all control mice developed corneal perforation): only corneal opacity
- survival and proliferation of cultured cells after treatment (hTCEpi cells; 2 full weeks following a 24-hour treatment): able to survive and proliferate well
- clonal survival compared to mock-treated controls (hTCEpi cells; hTCEpi cells, KU-55933 10 μM continuously for 24 hours): roughly 70%
